This note sets out measurements from BindingDB's records for patent WO2022081807 (THE BROAD INSTITUTE, INC., 2022).

Structures are written as SMILES.

The target of experiment [1] is T1, Histone acetyltransferase KAT6A [507-778] (Human, UniProt Q92794).
T1 construct: 507-778
As to the kind of experiment: Kat6a Activity Assay.

In experiment [2] the target is Histone acetyltransferase KAT6B (Human, UniProt Q8WYB5). The experiment in a line: Kat6b Activity Assay. How it is done:
In this case 50 nl DMSO were used instead of compounds. […] IC50 values were determined by regression analysis based on a 4 parameter equation (minimum, maximum, ICM, Hill; Y = Max + (Min - Max) / (1 + (X/ICso) Hill) using the Screener Software (Genedata).

T1 sequence (Q92794 whole entry): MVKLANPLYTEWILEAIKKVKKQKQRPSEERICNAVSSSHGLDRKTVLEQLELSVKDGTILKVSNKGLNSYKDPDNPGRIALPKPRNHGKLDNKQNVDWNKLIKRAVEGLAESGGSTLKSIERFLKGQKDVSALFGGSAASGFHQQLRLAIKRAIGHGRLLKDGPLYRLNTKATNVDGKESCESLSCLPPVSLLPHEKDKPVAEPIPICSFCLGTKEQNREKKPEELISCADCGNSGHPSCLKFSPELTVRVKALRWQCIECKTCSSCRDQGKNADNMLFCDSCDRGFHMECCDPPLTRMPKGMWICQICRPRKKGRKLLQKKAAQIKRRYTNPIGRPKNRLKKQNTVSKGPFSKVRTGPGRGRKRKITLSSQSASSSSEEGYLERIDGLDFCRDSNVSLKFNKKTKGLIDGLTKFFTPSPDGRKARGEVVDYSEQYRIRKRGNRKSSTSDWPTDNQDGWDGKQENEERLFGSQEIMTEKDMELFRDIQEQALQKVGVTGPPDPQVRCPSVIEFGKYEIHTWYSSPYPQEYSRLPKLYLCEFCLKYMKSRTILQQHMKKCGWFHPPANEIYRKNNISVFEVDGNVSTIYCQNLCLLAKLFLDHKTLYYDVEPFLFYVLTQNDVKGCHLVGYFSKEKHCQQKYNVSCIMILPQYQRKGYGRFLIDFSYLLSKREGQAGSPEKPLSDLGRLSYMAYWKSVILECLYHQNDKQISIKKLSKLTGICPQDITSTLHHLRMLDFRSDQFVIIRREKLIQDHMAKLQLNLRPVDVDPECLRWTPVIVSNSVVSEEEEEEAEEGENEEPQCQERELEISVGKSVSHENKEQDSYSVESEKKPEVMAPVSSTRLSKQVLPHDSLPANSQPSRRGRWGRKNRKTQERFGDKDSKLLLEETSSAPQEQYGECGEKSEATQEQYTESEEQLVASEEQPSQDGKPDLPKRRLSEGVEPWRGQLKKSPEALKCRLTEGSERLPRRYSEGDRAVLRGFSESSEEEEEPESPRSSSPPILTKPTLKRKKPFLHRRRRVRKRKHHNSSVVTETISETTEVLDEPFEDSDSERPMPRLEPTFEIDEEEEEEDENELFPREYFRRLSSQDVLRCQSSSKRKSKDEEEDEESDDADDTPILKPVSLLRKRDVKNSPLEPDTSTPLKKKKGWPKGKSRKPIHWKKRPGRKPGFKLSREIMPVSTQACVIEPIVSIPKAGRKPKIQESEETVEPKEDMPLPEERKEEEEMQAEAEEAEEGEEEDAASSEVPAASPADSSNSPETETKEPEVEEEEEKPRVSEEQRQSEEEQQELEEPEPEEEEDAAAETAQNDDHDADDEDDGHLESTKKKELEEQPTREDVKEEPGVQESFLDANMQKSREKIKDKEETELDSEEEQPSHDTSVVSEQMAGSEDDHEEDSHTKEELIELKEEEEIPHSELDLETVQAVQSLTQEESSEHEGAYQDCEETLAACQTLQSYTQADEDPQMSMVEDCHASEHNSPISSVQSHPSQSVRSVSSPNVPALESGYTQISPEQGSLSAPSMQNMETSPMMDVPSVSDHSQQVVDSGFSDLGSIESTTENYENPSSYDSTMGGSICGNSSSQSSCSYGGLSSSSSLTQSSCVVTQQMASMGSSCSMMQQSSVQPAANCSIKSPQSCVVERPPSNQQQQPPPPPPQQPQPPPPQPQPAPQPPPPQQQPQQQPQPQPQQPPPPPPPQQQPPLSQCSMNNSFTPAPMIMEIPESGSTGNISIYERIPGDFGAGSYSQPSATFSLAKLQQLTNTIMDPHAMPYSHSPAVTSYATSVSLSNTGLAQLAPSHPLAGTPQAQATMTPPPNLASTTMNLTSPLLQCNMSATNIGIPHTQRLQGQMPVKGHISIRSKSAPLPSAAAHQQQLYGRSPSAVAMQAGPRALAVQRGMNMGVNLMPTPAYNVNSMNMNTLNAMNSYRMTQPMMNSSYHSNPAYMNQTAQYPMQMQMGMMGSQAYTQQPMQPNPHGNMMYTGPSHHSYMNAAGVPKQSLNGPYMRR
Histone acetyltransferase KAT6B, sequence (Q8WYB5 whole entry): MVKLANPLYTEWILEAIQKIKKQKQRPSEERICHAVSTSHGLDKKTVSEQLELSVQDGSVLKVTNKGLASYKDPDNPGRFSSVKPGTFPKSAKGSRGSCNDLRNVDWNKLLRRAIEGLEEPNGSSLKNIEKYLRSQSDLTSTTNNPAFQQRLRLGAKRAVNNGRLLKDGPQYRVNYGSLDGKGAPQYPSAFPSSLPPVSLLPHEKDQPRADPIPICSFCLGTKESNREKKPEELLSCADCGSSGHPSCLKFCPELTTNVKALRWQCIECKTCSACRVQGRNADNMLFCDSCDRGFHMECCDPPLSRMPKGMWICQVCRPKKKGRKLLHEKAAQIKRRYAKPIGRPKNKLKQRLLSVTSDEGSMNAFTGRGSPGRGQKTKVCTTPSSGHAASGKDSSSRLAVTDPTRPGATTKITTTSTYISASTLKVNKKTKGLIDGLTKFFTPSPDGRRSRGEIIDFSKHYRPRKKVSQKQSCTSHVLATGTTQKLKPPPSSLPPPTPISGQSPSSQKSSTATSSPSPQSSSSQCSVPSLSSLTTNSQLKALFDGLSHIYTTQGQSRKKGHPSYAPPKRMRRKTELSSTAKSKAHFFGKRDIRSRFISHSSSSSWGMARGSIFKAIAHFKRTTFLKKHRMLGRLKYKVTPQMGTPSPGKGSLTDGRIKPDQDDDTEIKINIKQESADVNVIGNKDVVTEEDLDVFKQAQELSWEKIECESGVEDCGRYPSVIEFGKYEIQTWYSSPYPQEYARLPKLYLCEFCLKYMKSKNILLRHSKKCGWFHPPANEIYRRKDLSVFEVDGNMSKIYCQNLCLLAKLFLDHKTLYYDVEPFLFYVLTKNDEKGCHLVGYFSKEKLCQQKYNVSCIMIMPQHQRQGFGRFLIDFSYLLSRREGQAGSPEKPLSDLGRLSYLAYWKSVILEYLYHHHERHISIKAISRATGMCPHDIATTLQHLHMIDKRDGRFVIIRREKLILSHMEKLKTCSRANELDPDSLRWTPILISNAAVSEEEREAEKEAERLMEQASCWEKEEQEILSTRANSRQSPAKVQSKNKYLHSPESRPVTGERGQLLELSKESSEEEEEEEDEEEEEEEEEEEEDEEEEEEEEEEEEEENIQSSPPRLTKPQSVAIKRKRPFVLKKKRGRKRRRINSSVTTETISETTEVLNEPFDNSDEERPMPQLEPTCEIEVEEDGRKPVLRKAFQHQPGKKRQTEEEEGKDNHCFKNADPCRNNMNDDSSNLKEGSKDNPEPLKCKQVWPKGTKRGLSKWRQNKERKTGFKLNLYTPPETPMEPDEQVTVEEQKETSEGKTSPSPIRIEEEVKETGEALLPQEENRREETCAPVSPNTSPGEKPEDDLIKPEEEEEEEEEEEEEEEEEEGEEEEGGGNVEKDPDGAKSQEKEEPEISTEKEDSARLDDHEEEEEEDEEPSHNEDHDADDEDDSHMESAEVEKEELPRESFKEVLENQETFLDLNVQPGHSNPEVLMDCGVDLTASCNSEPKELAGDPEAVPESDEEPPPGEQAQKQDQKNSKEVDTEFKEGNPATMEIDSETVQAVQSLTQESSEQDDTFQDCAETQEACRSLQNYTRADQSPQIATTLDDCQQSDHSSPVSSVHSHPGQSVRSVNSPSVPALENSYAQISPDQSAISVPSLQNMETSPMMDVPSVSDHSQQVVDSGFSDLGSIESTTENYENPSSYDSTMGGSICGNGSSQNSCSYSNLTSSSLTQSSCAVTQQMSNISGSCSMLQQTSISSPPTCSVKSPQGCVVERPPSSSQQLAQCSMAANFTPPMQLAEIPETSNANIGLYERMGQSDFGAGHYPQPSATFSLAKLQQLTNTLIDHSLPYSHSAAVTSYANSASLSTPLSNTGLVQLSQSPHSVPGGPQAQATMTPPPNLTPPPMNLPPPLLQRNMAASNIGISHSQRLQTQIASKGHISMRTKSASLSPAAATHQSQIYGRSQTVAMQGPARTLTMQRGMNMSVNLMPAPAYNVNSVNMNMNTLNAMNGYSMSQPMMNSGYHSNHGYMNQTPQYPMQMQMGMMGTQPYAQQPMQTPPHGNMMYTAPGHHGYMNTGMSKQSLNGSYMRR

A word on the IC50: it is the concentration at which inhibition is half-maximal. As for `CC(Oc1ccccc1S(=O)(=O)NC(=O)c1cc2c(F)cc(N3CCC3)cc2o1)C(F)(F)F` (racemic) [WO2022081807, Example 13], the midpoint of inhibition in experiment [1], the IC50, lay at 19 nM.
Consider `CC(C)c1ccc(OCC2CC2(F)F)c(S(=O)(=O)NC(=O)c2cc3c(F)cc(N4CCC4)cc3o2)c1` (racemic) [WO2022081807, Example 231], for which, in experiment [2], inhibition was half-maximal at 29 nM (IC50).
In experiment [1], `CCOc1cccc(Oc2ccccc2)c1S(=O)(=O)NC(=O)c1cc2c(F)cc(N3CCC3)cc2o1` [WO2022081807, Example 7] returned an IC50 of 4.15 nM.
Regarding `Cc1ccc(OCC2CCCC2)c(S(=O)(=O)NC(=O)c2cc3c(F)cc(N4CCC4)cc3o2)c1` [WO2022081807, Example 9], in experiment [1], inhibition was half-maximal at 21 nM (IC50). This IC50 lies about 5.1-fold higher than the previous one.
Molecule `CN(C)c1ccccc1S(=O)(=O)NC(=O)c1cc2c(F)cc(N3CCC3)cc2o1` [WO2022081807, Example 11] displayed an IC50 in experiment [1] of 7.52 nM.
In experiment [1], `C[C@@H](Oc1ccccc1S(=O)(=O)NC(=O)c1cc2c(F)cc(N3CCC3)cc2o1)C(F)(F)F` [WO2022081807, Example 14] showed an IC50 of 28 nM.
Same read-out and setting: under `C[C@H](Oc1ccccc1S(=O)(=O)NC(=O)c1cc2c(F)cc(N3CCC3)cc2o1)C(F)(F)F` [WO2022081807, Example 15] stands 47 nM; under `O=C(NS(=O)(=O)c1cccc2c1OCC2)c1cc2c(F)cc(N3CCC3)cc2o1` [WO2022081807, Example 18], 24 nM.
`CCOc1cccc(C(C)C)c1S(=O)(=O)NC(=O)c1cc2c(F)cc(N3CCC3)cc2o1` [WO2022081807, Example 23] yielded an IC50 in experiment [1] of 29 nM.
In experiment [1], `CC(C)c1ccc(C(C)C)c(S(=O)(=O)NC(=O)c2cc3c(F)cc(N4CCC4)cc3o2)c1` [WO2022081807, Example 30] gave an IC50 of 25 nM.
Molecule `CCc1cc(S(=O)(=O)NC(=O)c2cc3c(F)cc(N4CCC4)cc3o2)c(C)s1` [WO2022081807, Example 36] had an IC50 in experiment [1] of 367 nM. Against the preceding molecule, the IC50 is about 15-fold higher.
In experiment [1], `CC(C)Oc1cccc(Br)c1S(=O)(=O)NC(=O)c1cc2c(F)cc(N3CCC3)cc2o1` [WO2022081807, Example 39] displayed an IC50 of 79 nM. Compared with the last molecule, the IC50 is about 4.6-fold lower.
Consider `Cc1cccc(C(C)C)c1S(=O)(=O)NC(=O)c1cc2c(F)cc(N3CCC3)cc2o1` [WO2022081807, Example 53], for which the IC50 in experiment [1] was determined as 70 nM.
For the molecule `CN(C(=O)Oc1ccccc1S(=O)(=O)NC(=O)c1cc2c(F)cc(N3CCC3)cc2o1)c1ccccc1` [WO2022081807, Example 62], 196 nM corresponded to half-maximal inhibition in experiment [1] (IC50). Compared with the last molecule, the IC50 is about 2.8-fold higher.
Take `CC(C)c1cccnc1S(=O)(=O)NC(=O)c1cc2c(F)cc(N3CCC3)cc2o1` [WO2022081807, Example 79]: in experiment [2], half-maximal inhibition (IC50) was put at 14 nM. This lies in the double-digit nanomolar range.
As to `O=C(NS(=O)(=O)c1cc(Br)ccc1OC(F)(F)F)c1cc2c(F)cc(N3CCC3)cc2o1` [WO2022081807, Example 82], 19 nM corresponded to half-maximal inhibition in experiment [1] (IC50).
`O=C(NS(=O)(=O)c1c(NCC(F)F)cccc1C(F)(F)F)c1cc2c(F)cc(N3CCC3)cc2o1` [WO2022081807, Example 92] came in with an IC50 in experiment [1] of 464 nM.
Take `CCOc1ccc(C(C)(C)C)cc1S(=O)(=O)NC(=O)c1cc2c(F)cc(N3CC(F)C3)cc2o1` [WO2022081807, Example 113]: in experiment [2], 12 nM corresponded to half-maximal inhibition (IC50). This counts as double-digit nanomolar.
The molecule `CCOc1ccccc1S(=O)(=O)NC(=O)c1cc2c(F)cc(N3CC(C)(F)C3)cc2o1` [WO2022081807, Example 116] registered a concentration for half-maximal inhibition (IC50) in experiment [1] of 2290 nM.
With `COc1ccc(C(C)C)cc1S(=O)(=O)NC(=O)c1cc2c(F)cc(N3CCC3)cc2o1` [WO2022081807, Example 128], the IC50 in experiment [1] came out at 8.15 nM; in experiment [2], 15 nM.
For `Cc1ccc2cccc(S(=O)(=O)NC(=O)c3cc4c(F)cc(N5CCC5)cc4o3)c2n1` [WO2022081807, Example 130] the same measures were 14 nM and 20 nM.
For `O=C(NS(=O)(=O)c1ccccc1OC1CC1)c1cc2c(F)cc(N3CCC3)cc2o1` [WO2022081807, Example 131], the IC50 in experiment [1] worked out at 23 nM.
As for `Cc1ccc(OC(C)C)c(S(=O)(=O)NC(=O)c2cc3c(F)cc(N4CCC4)cc3o2)c1` [WO2022081807, Example 134], in experiment [1], the IC50 is 18 nM.
As for `CCOc1ccc(Br)cc1S(=O)(=O)NC(=O)c1cc2c(F)cc(N3CCC3)cc2o1` [WO2022081807, Example 135], in experiment [1], the IC50 stood at 17 nM.
As for `COc1cccc(N2CCOCC2)c1S(=O)(=O)NC(=O)c1cc2c(F)cc(N3CCC3)cc2o1` [WO2022081807, Example 137], the IC50 in experiment [1] was 26 nM.
`COc1ccc(Br)cc1S(=O)(=O)NC(=O)c1cc2c(F)cc(N3CCC3)cc2o1` [WO2022081807, Example 139] registered an IC50 in experiment [1] of 27 nM.
In experiment [1], `O=C(NS(=O)(=O)c1cccc2c1OC(F)(F)C(F)(F)O2)c1cc2c(F)cc(N3CCC3)cc2o1` [WO2022081807, Example 140] returned an IC50 of 28 nM.
Consider `Cc1ccc2cccc(S(=O)(=O)NC(=O)c3cc4c(F)cc(N5CC(F)C5)cc4o3)c2n1` [WO2022081807, Example 152], for which inhibition in experiment [2] was half-maximal at 20 nM (IC50).
Molecule `CCOc1ccc(CC)cc1S(=O)(=O)NC(=O)c1cc2c(F)cc(N3CC(F)C3)cc2o1` [WO2022081807, Example 153] had an IC50 in experiment [1] of 11 nM.
In experiment [1], `O=C(NS(=O)(=O)c1cccc2ccc(Cl)nc12)c1cc2c(F)cc(N3CC(F)C3)cc2o1` [WO2022081807, Example 154] returned an IC50 of 13 nM.
In turn, `COc1ccc(C)cc1S(=O)(=O)NC(=O)c1cc2c(F)cc(N3CCC3)cc2o1` [WO2022081807, Example 156] had an IC50 in experiment [1] of 20 nM.
For the molecule `COc1ccc(C)cc1S(=O)(=O)NC(=O)c1cc2c(F)cc(N3CC(F)C3)cc2o1` [WO2022081807, Example 158], half-maximal inhibition in experiment [1] (IC50) required 26 nM. The IC50 values of the last two molecules are within 1.5-fold of each other.
Consider `CCS(=O)(=O)c1nc2ccccn2c1S(=O)(=O)NC(=O)c1cc2c(F)cc(N3CC(F)C3)cc2o1` [WO2022081807, Example 167], for which half-maximal inhibition in experiment [1] (IC50) was put at 517 nM. Against the preceding molecule, the IC50 is about 20-fold higher.
Molecule `CCOc1ccccc1S(=O)(=O)NC(=O)c1cc2c(F)cc(N3CC[C@@H]3C(N)=O)cc2o1` [WO2022081807, Example 169] had an IC50 in experiment [1] of 11 nM.
Still for that read-out and setting: to `O=C(NS(=O)(=O)c1cc(Br)cc2c1OCC2)c1cc2c(F)cc(N3CCC3)cc2o1` [WO2022081807, Example 177] belongs 21 nM; to `Cc1ccc(S(=O)(=O)NC(=O)c2cc3c(F)cc(N4CCC4)cc3o2)c2ccncc12` [WO2022081807, Example 191], 310 nM; to `COc1ccc(C2=CCN(C(=O)OC(C)(C)C)CC2)cc1S(=O)(=O)NC(=O)c1cc2c(F)cc(N3CCC3)cc2o1` [WO2022081807, Example 197], 6.06 nM.
The same measure, in the same setting: to `COc1ccc(-c2cccc(F)c2)cc1S(=O)(=O)NC(=O)c1cc2c(F)cc(N3CCC3)cc2o1` [WO2022081807, Example 198] belongs 12 nM; to `COc1ccc(N2CCCC2c2ccccc2)cc1S(=O)(=O)NC(=O)c1cc2c(F)cc(N3CCC3)cc2o1` (stereo not drawn) [WO2022081807, Example 201], 0.81 nM; to `CCOc1ccc(C(F)(F)F)cc1S(=O)(=O)NC(=O)c1cc2c(F)cc(N3CCC3)cc2o1` [WO2022081807, Example 209], 27 nM.
As to `CC(C)c1ccc(OCc2ccccc2)c(S(=O)(=O)NC(=O)c2cc3c(F)cc(N4CCC4)cc3o2)c1` [WO2022081807, Example 213], 15 nM corresponded to half-maximal inhibition in experiment [2] (IC50).
In experiment [2], `CC(C)c1ccc(OCC2CC2)c(S(=O)(=O)NC(=O)c2cc3c(F)cc(N4CCC4)cc3o2)c1` [WO2022081807, Example 214] came in with an IC50 of 20 nM.
As to `CC1(C)CCN1c1cc(F)c2cc(C(=O)NS(=O)(=O)c3ccccc3-c3ccccc3)oc2c1` [WO2022081807, Example 217], in experiment [1], the midpoint of inhibition, the IC50, lay at 1190 nM.
`Cc1ccc2cccc(S(=O)(=O)NC(=O)c3cc4c(F)cc(N5CCC5C)cc4o3)c2n1` (stereo not drawn) [WO2022081807, Example 221] registered an IC50 in experiment [1] of 62 nM.
Regarding `CC(C)(C)c1ccc(OC2CCC2)c(S(=O)(=O)NC(=O)c2cc3c(F)cc(N4CCC4)cc3o2)c1` [WO2022081807, Example 228], the IC50 in experiment [2] came to 13 nM.
On to `CC(C)Oc1ccc(C(C)(C)C)cc1S(=O)(=O)NC(=O)c1cc2c(F)cc(N3CCC3)cc2o1` [WO2022081807, Example 229], for which, in experiment [2], the half-inhibitory concentration (IC50) is 28 nM.
